# Assay results published in US20120100989A1, “3-Aryl-4-(2-thienylmethylene)isoxazol-5(4H)-ones as Fungicides” (Bayer CropScience AG, priority 2010, published 2012).
# Experiment: log P by HPLC on reversed-phase columns (C 18), EEC directive 79/831 Annex V.A8
# Format: physicochemical
# Details: HPLC, acidic range pH 2.7, 0.1% aqueous formic acid and acetonitrile
# Description: The log P values were measured according to EEC directive 79/831 Annex V.A8 by HPLC (High Performance Liquid Chromatography) on reversed-phase columns (C 18), using the method below:
# The determination was carried out in the acidic range at pH 2.7 using the mobile phases 0.1% aqueous formic acid and acetonitrile; linear gradient from 10% acetonitrile to 95% acetonitrile.
row,SMILES,log P
1,Cc1ccc(C=C2C(=O)ON=C2c2ccccc2Cl)s1 [I-8],3.23

# Same assay, conditions: pH 2.7
row,SMILES,log P
1,O=C1ON=C(c2cccc(Cl)c2Cl)C1=Cc1cccs1 [I-99],3.62
2,Cc1ccc(C2=NOC(=O)C2=Cc2sccc2C)cc1 [U-8],3.57
3,O=C1ON=C(c2ccccc2Cl)C1=Cc1ccc(-c2ccccc2)s1 [I-15],4.42
4,COc1ccc(C2=NOC(=O)C2=Cc2cc(-c3ccccc3)cs2)cc1 [I-62],4.23
5,Cc1ccc(C=C2C(=O)ON=C2c2cc(Br)ccc2Cl)s1 [I-131],4.02
6,Cc1ccc(C=C2C(=O)ON=C2c2ccc([N+](=O)[O-])cc2)s1 [U-24],3.29
7,O=C1ON=C(c2ccc(Cl)cc2)C1=Cc1sccc1Br [I-61],4.23
8,COc1ccc(C2=NOC(=O)C2=Cc2sccc2Br)cc1 [I-39],3.65
9,Cc1ccc(C2=NOC(=O)C2=Cc2sccc2C)c(C)c1 [I-97],3.85
10,Cc1ccsc1C=C1C(=O)ON=C1c1ccccc1OCc1ccccc1 [I-116],3.89
11,Cc1ccc(C2=NOC(=O)C2=Cc2cccs2)c(C)c1 [I-90],3.60
12,Cc1cccc(C2=NOC(=O)C2=Cc2cccs2)c1 [I-80],3.36
13,O=C1ON=C(c2cc(Cl)cc(Cl)c2)C1=Cc1cccs1 [I-34],4.02
14,O=C1ON=C(c2ccc([N+](=O)[O-])cc2)/C1=C/c1cccs1 [U-40],3.03
15,Cc1c(C=C2C(=O)ON=C2c2ccccc2)sc2ccccc12 [I-145],4.13
16,O=C1ON=C(c2cc(F)ccc2F)C1=Cc1ccc(Cl)s1 [I-139],3.84
17,O=C1ON=C(c2c(F)cccc2F)C1=Cc1ccc([N+](=O)[O-])s1 [I-76],3.25
18,COc1ccc(C2=NOC(=O)C2=Cc2ccc(C)s2)c(OC)c1 [U-25],2.97
19,O=C1ON=C(c2cccc(F)c2)C1=Cc1cccs1 [I-100],3.13

row,SMILES,log P
1,O=C1ON=C(c2ccc(F)cc2)C1=Cc1cc(Br)c(Br)s1 [I-63],4.45
2,Cc1ccc(C=C2C(=O)ON=C2c2ccccc2Cl)s1 [I-19],3.44
3,O=C1ON=C(c2ccc(F)cc2)C1=Cc1ccc(Cl)s1 [I-41],3.72
4,Cc1ccsc1C=C1C(=O)ON=C1c1ccccc1[N+](=O)[O-] [I-135],2.85
5,O=C1ON=C(c2ccccc2I)C1=Cc1cccs1 [I-108],3.36
6,Cc1ccc(C=C2C(=O)ON=C2c2ccccc2OCc2ccccc2)s1 [I-115],3.98
7,COc1ccc(C2=NOC(=O)C2=Cc2cc(Br)c(Br)s2)cc1 [I-44],4.45
8,O=C1ON=C(c2ccccc2OCc2ccccc2)C1=Cc1cccs1 [I-117],3.74
9,COc1ccc(C2=NOC(=O)C2=Cc2cccs2)c(OC)c1 [U-28],2.68
10,COc1ccc(C2=NOC(=O)C2=Cc2ccc(Br)s2)cc1 [I-49],3.77
11,O=C1ON=C(c2ccccc2Cl)C1=Cc1cc(Br)c(Br)s1 [I-17],4.64
12,Cc1c(C=C2C(=O)ON=C2c2cc(F)ccc2Cl)sc2ccccc12 [I-146],4.32
13,CCc1sc(C=C2C(=O)ON=C2c2ccccc2Cl)cc1Br [I-10],3.87
14,Cc1ccccc1C1=NOC(=O)C1=Cc1cccs1 [I-23],2.98
15,Cc1ccc(C)c(C2=NOC(=O)C2=Cc2cccs2)c1 [I-98],3.62
16,O=C1ON=C(c2ccc(Cl)cc2)C1=Cc1ccc(Br)s1 [I-50],4.21
17,O=C1ON=C(c2ccccc2Cl)C1=Cc1ccc([N+](=O)[O-])s1 [I-104],3.50
18,CC(C)(C)c1ccc(C2=NOC(=O)C2=Cc2ccc(Cl)s2)cc1 [I-40],5.08
19,O=C1ON=C(c2ccccc2Cl)C1=Cc1cc(Br)cs1 [I-11],3.92

row,SMILES,log P
1,O=C1ON=C(c2ccccc2F)C1=Cc1ccc(Cl)s1 [I-106],3.67
2,O=C1ON=C(c2c(F)cccc2F)C1=Cc1cc(-c2ccccc2)cs1 [I-70],4.16
3,CCOc1ccc(C2=NOC(=O)C2=Cc2sccc2C)cc1 [I-82],3.61
4,O=C1ON=C(c2ccc(C(F)(F)F)cc2)C1=Cc1ccc(Cl)s1 [I-71],4.37
5,Cc1ccsc1C=C1C(=O)ON=C1c1ccccc1 [U-29],3.18
6,Cc1ccsc1C=C1C(=O)ON=C1c1ccc(C(C)(C)C)cc1 [I-28],4.58
7,CSCc1sc(C=C2C(=O)ON=C2c2ccccc2Cl)cc1Br [I-13],4.29
8,O=C1ON=C(c2ccccc2F)C1=Cc1cccs1 [I-22],2.95
9,Cc1ccc(C)c(C2=NOC(=O)C2=Cc2sccc2C)c1 [I-124],3.81
10,O=C1ON=C(c2ccccc2Cl)C1=Cc1ccc(Cl)s1 [I-9],3.90
11,COCc1ccsc1C=C1C(=O)ON=C1c1ccccc1Cl [I-20],3.20
12,O=C1ON=C(c2cccc(Cl)c2)C1=Cc1cccs1 [I-3],3.40
13,Cc1cc(C)cc(C2=NOC(=O)C2=Cc2ccc(C)s2)c1 [I-87],4.08
14,O=C1ON=C(c2ccc(F)cc2)C1=Cc1cc(-c2ccccc2)cs1 [I-67],4.27
15,O=C1ON=C(c2ccccc2[N+](=O)[O-])C1=Cc1cccs1 [I-120],2.69
16,CC(C)(C)c1ccc(C2=NOC(=O)C2=Cc2ccc([N+](=O)[O-])s2)cc1 [I-53],4.52
17,Cc1sc(C=C2C(=O)ON=C2c2ccccc2Cl)cc1Br [I-12],4.73
18,O=C1ON=C(c2ccccc2Cl)C1=Cc1cc(-c2ccccc2)cs1 [I-14],4.36

# The remaining lines, values ahead:
row,log P,SMILES
1,3.78,O=C1ON=C(c2ccc(F)cc2)C1=Cc1ccc(Br)s1 [I-47]
2,3.41,O=C1ON=C(c2cccc(F)c2)C1=Cc1ccc([N+](=O)[O-])s1 [I-101]
3,4.51,Cc1ccc(C2=NOC(=O)C2=Cc2sc3ccccc3c2C)cc1 [I-142]
4,3.25,Cc1ccc(C=C2C(=O)ON=C2c2c(F)cccc2F)s1 [I-78]
5,3.59,CSc1ccsc1C=C1C(=O)ON=C1c1ccccc1Cl [I-16]
6,3.28,O=C1ON=C(c2cc(F)ccc2Cl)C1=Cc1cccs1 [I-127]
7,4.17,O=C1ON=C(c2ccc(Cl)cc2)C1=Cc1ccc(Cl)s1 [I-46]
8,3.64,O=C1ON=C(c2cc(Cl)ccc2Cl)C1=Cc1cccs1 [I-35]
9,3.88,O=C1ON=C(c2cc(Br)ccc2Br)C1=Cc1cccs1 [I-122]
10,3.71,COc1ccc(C2=NOC(=O)C2=Cc2cc(Br)cs2)cc1 [U-16]
11,4.25,Cc1ccc(C2=NOC(=O)C2=Cc2sccc2Br)cc1 [I-38]
12,3.97,Cc1ccsc1C=C1C(=O)ON=C1c1cc(Br)ccc1Cl [I-132]
13,4.70,O=C1ON=C(c2ccc(Cl)cc2)C1=Cc1cc(-c2ccccc2)cs1 [I-65]
14,3.35,O=C1ON=C(c2ccccc2[N+](=O)[O-])C1=Cc1ccc(Br)s1 [I-134]
15,4.48,O=C1ON=C(c2ccccc2OCc2ccccc2)C1=Cc1ccc(Br)s1 [I-113]
16,5.13,CC(C)(C)c1ccc(C2=NOC(=O)C2=Cc2ccc(Br)s2)cc1 [I-93]
17,4.19,O=C1ON=C(c2ccc(Cl)cc2)C1=Cc1cc(Br)cs1 [I-31]
18,4.84,Cc1ccc(C2=NOC(=O)C2=Cc2cc(Br)c(Br)s2)cc1 [I-64]
19,3.69,O=C1ON=C(c2ccccc2)C1=Cc1sccc1Br [I-109]
20,3.73,Cc1ccc(C2=NOC(=O)C2=Cc2cccs2)cc1C [I-92]
21,3.82,Cc1ccsc1C=C1C(=O)ON=C1c1cccc(C(F)(F)F)c1 [I-91]
22,4.02,Cc1ccsc1C=C1C(=O)ON=C1c1cc(Br)ccc1Br [I-125]
23,4.27,O=C1ON=C(c2ccccc2)C1=Cc1cc(-c2ccccc2)cs1 [I-110]
24,3.69,O=C1ON=C(c2c(F)cccc2F)C1=Cc1cc(Br)cs1 [I-77]
25,2.97,O=C1ON=C(c2c(F)cccc2F)C1=Cc1cccs1 [I-59]
26,3.73,O=C1ON=C(c2c(F)cccc2F)C1=Cc1ccc(Br)s1 [I-72]
27,3.76,COc1cccc(C2=NOC(=O)C2=Cc2cc(Br)cs2)c1 [U-14]
28,3.79,Cc1ccc(C=C2C(=O)ON=C2c2ccc(Cl)cc2)s1 [I-25]

# Same assay, conditions: reversed-phase C18 HPLC column; preparation examples; HPLC, acidic range pH 2.7, formic acid; read-out: log P (HCOOH)
row,SMILES,chromatographic logP
1,"O=C1CC(c2ccc(Cl)cc2Cl)=NO1 [3-(2,4-dichlorophenyl)isoxazol-5(4H)-one]",2.44
2,"Cc1ccc(/C=C2\C(=O)ON=C2c2ccc(C(C)(C)C)cc2)s1 [I-27, 3-(4-tert-butylphenyl)-4-(2-(5-methylthienyl)methylene)isoxazol-5(4H)-one]",4.7
3,"O=C1ON=C(c2ccc(Cl)cc2Cl)/C1=C/c1cccs1 [I-4, 3-(2,4-dichlorophenyl)-4-(2-thienylmethylene)isoxazol-5(4H)-one]",3.72
